ChEMBL document CHEMBL1201862, “PubChem BioAssay data set” (2004)
Activity calls are given as the source filed them.

Columns and labels:
[1] = target: T1, Tyrosine-protein phosphatase non-receptor type 22 (Homo sapiens, UniProt Q9Y2R2); type: functional;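 note: confirmatory dose-response retest of primary uHTS hits for inhibition of LYP phosphatase, measured by a fluorescence intensity read-out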
T1 sequence (Q9Y2R2 whole entry): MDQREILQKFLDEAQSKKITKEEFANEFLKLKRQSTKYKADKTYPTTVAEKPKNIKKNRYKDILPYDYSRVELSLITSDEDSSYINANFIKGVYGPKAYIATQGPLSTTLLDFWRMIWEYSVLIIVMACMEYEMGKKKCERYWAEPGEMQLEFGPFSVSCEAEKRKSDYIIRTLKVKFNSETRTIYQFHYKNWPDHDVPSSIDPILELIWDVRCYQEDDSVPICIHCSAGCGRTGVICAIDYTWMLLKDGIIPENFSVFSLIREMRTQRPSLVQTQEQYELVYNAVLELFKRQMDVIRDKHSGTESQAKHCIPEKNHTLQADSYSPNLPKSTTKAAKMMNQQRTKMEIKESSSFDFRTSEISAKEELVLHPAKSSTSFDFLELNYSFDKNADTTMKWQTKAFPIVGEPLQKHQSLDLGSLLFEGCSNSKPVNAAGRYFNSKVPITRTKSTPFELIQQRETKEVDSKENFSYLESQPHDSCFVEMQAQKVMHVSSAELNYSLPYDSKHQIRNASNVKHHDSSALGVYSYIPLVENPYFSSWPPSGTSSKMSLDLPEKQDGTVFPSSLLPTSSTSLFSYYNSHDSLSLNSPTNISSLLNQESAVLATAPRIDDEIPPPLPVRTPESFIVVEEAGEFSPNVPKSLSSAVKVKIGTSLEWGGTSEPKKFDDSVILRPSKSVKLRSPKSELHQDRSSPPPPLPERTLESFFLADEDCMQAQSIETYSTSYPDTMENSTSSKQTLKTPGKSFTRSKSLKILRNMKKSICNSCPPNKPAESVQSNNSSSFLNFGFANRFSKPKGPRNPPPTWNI

Caspase-6 = target: T2, Caspase-6 (Homo sapiens, UniProt P55212); experiment: inhibition of CASP6 peptide cleavage – biochemical, VEID-R110 fluorescence, cherry-pick, dose response (AID 720632)
T2 sequence (P55212 whole entry): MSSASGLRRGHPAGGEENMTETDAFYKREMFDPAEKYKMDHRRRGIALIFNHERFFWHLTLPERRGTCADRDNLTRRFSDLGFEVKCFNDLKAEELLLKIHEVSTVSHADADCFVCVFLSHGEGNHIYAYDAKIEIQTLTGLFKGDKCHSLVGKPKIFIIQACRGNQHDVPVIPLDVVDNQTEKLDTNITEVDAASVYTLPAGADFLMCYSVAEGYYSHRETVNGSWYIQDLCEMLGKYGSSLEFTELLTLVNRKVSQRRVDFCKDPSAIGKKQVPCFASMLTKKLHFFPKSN

Caspase-9 = Caspase-9 (Homo sapiens, UniProt P55211); experiment: inhibitors of purified CASP9 protease – biochemical, fluorescence, plate reader, cherry-picked samples, selectivity assay for caspase-6 inhibitor project, dose response (AID 743293)
Chain of Caspase-9 (P55211 1-315 limits assumed): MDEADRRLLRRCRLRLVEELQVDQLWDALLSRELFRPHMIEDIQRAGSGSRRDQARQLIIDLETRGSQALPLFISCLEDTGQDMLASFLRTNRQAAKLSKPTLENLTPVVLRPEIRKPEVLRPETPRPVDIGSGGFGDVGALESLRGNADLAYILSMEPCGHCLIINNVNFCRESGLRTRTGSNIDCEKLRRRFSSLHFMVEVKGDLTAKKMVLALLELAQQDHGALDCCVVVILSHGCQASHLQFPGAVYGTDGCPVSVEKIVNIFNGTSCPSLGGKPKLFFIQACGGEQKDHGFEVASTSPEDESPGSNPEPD
Chain of Caspase-9 (P55211 331-416 limits assumed): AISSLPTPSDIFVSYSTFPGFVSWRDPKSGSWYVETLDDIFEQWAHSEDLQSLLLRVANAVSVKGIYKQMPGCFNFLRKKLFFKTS

[2] = A549 cell cytotoxicity, dose response, cytotoxicity control, plate reader, cherry-pick, antagonist series (AID 743412); type: functional, cell-based
[3] = target: 1-phosphatidylinositol 4,5-bisphosphate phosphodiesterase beta-3 (Homo sapiens, UniProt Q01970); experiment: Fluorescence-based biochemical high throughput dose response assay to identify inhibitors of phospholipase C isozymes (PLC-B3).
Chain of 1-phosphatidylinositol 4,5-bisphosphate phosphodiesterase beta-3 (Q01970 whole entry): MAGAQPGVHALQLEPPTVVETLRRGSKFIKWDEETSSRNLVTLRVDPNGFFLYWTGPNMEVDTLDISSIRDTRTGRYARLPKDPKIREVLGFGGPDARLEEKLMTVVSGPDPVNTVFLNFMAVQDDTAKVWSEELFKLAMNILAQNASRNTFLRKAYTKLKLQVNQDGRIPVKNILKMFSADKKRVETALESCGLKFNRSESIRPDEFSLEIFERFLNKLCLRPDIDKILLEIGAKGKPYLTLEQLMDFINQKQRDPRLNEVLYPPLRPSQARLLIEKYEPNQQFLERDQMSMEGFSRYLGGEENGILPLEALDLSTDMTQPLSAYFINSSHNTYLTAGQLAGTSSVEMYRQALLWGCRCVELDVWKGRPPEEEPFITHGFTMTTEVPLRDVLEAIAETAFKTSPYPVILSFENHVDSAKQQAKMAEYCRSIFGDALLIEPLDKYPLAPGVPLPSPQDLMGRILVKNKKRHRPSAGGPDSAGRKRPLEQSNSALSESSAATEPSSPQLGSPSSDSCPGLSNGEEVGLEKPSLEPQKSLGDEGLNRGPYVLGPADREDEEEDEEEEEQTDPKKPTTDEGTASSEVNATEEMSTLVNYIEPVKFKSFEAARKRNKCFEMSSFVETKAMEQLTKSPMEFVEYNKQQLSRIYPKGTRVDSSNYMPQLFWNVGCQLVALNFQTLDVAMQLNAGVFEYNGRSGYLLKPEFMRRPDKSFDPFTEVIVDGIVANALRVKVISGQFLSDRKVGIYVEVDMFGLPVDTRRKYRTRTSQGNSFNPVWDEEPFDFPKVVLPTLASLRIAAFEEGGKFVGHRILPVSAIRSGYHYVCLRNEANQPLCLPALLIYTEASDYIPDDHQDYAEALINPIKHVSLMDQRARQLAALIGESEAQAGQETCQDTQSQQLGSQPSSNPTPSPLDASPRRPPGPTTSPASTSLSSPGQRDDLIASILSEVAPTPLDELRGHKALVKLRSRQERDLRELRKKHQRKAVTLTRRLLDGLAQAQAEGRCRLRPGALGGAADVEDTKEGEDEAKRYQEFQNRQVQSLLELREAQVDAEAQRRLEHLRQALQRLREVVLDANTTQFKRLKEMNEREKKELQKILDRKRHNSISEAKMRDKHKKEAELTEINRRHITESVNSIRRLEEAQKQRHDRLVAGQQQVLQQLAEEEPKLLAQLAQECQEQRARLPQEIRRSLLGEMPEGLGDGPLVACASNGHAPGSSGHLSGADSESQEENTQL

[4] = target: T3, Apoptotic protease-activating factor 1 (Homo sapiens, UniProt O14727); type: functional
T3 sequence (O14727 whole entry): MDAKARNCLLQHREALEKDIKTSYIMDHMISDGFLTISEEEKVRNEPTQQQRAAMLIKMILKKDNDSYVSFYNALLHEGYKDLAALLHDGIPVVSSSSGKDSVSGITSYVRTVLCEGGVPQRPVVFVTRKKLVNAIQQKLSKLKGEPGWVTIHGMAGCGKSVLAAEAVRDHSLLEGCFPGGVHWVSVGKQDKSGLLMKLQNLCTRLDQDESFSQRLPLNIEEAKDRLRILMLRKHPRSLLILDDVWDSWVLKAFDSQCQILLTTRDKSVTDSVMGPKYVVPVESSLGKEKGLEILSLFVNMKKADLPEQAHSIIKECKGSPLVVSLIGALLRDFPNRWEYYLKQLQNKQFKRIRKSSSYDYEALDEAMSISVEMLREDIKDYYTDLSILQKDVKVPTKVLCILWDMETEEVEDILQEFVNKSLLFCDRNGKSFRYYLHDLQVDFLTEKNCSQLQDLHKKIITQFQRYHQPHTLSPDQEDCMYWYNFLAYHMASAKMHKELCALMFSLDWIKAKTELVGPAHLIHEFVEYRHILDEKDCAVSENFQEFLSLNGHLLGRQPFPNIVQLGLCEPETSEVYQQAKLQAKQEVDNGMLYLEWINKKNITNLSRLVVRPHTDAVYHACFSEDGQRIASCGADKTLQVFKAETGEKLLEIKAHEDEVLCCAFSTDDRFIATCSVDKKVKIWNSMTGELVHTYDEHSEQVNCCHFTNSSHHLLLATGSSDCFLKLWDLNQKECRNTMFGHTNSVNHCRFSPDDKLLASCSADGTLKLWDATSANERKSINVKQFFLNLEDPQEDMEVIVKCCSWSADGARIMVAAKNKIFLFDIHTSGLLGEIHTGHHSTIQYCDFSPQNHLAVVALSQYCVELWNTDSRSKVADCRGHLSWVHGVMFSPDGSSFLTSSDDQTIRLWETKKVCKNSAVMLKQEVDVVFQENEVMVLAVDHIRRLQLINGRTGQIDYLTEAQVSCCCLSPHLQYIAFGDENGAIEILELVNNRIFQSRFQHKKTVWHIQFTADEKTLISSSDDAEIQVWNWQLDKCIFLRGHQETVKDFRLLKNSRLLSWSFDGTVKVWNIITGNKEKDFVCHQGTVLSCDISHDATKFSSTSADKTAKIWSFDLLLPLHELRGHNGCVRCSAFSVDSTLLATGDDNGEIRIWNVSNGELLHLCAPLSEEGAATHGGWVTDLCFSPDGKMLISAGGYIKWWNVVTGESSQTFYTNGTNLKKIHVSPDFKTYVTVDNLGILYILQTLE

[5] = target: Mitogen-activated protein kinase 9 (Homo sapiens, UniProt P45984); type: functional;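 note: value from a kinome panel profiling assay, MAPK9 panel entry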
Chain of Mitogen-activated protein kinase 9 (P45984 whole entry): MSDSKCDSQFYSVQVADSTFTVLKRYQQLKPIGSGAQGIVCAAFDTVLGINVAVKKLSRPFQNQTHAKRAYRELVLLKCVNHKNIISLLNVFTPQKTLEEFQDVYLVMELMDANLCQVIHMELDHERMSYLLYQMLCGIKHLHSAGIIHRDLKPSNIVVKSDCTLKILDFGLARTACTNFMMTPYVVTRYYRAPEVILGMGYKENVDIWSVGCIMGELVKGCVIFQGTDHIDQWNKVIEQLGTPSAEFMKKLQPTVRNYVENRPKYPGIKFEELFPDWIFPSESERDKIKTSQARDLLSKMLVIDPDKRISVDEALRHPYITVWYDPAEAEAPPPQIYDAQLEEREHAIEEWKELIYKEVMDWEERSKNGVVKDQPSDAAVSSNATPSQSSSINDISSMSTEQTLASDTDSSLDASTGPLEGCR

[6] = target: Inhibitor of nuclear factor kappa-B kinase subunit alpha (Homo sapiens, UniProt O15111); type: functional
Chain of Inhibitor of nuclear factor kappa-B kinase subunit alpha (O15111 whole entry, canonical isoform): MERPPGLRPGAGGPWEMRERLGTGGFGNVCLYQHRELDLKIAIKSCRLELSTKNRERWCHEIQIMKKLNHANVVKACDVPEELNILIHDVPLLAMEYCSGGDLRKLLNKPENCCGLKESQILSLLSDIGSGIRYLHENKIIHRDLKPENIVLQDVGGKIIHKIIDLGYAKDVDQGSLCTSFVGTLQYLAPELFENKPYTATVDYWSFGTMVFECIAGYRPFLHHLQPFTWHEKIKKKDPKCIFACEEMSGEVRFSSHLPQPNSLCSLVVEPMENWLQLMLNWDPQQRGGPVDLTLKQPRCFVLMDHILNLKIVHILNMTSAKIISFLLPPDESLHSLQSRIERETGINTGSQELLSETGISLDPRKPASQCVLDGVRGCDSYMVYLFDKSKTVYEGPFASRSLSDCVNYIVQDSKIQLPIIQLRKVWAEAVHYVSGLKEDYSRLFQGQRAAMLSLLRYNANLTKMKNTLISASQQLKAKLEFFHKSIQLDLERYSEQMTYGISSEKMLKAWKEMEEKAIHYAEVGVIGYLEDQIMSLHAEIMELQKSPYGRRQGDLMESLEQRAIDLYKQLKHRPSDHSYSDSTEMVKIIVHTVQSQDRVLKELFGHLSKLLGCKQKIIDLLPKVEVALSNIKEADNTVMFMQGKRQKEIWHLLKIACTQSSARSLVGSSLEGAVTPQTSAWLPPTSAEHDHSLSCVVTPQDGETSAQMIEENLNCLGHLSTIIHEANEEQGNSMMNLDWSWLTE

[7] = target: Casein kinase I isoform delta (Homo sapiens, UniProt P48730); type: functional;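 note: measured as one member (CSNK1D) of a kinome panel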
Chain of Casein kinase I isoform delta (P48730 whole entry, canonical isoform): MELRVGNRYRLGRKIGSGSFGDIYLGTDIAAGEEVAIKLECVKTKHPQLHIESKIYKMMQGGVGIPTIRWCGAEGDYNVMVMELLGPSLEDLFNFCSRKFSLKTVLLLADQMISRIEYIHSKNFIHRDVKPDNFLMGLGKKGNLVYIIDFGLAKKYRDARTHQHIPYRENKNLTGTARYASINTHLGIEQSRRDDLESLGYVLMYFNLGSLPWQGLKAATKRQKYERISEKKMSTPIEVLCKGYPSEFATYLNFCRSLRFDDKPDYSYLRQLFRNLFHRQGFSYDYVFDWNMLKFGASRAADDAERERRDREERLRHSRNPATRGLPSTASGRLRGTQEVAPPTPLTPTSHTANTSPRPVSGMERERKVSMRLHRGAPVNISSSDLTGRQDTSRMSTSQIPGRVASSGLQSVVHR

[8] = target: Fibroblast growth factor receptor 3 (Homo sapiens, UniProt P22607); type: functional
Chain of Fibroblast growth factor receptor 3 (P22607 whole entry): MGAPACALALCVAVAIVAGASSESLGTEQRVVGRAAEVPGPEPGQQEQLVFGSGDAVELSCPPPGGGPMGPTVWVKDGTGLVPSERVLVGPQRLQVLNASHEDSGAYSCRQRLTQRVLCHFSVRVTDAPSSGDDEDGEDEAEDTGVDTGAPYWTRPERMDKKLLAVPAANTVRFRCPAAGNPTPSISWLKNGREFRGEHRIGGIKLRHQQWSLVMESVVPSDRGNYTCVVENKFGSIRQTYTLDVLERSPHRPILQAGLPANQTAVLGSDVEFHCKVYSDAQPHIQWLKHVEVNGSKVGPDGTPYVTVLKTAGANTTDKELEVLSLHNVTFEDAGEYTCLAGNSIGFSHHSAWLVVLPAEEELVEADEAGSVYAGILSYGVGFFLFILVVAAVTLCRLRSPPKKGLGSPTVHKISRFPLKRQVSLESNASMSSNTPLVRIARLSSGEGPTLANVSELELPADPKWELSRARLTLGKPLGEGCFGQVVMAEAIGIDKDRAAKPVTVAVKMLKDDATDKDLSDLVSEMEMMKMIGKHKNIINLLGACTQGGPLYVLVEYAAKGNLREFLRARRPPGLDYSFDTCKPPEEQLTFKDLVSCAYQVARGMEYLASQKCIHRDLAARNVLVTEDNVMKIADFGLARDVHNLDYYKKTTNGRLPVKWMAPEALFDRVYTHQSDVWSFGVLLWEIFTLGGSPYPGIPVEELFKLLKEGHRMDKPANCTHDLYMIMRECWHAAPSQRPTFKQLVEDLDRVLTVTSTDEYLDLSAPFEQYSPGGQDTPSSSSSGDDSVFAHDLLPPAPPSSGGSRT

Q: For `CCCc1nc2c(=O)n(C)c(=O)nc-2n(C)n1`, which IC50 [1] is on record?
A: 1.6 µM (active)

Q: And the AC50 (Caspase-6)?
A: 0.0636 µM (active)

Q: And the AC50 (Caspase-9)?
A: 0.214 µM (active)

Q: And the AC50 [2]?
A: 6.05 µM (active)

Q: And the IC50 [3]?
A: > 122 µM (inactive)

Q: For `CC(=O)c1ccc(NC2=C(N3CCOCC3)C(=O)c3ccccc3C2=O)cc1`, which IC50 [4] is on record?
A: 28.7 µM (active)

Q: With `COc1cc2ncn(-c3cc(OCc4ccccc4C(F)(F)F)c(C(N)=O)s3)c2cc1OC` [GW843682X] as the compound, how does the Ki [5] read?
A: > 3.98 µM (inactive)

Q: And the Ki [6]?
A: > 3.98 µM (inactive)

Q: And the Ki [7]?
A: > 7.94 µM (inactive)

Q: What about the Ki [8] of the same compound?
A: > 2 µM (inactive)
